Measured values: patent publication US20250099407A1, “2-AMINO BENZOPHENONE DERIVATIVES FOR TARGETED FERROPTOSIS INDUCTION IN CANCER THERAPY” (INDIAN INSTITUTE OF TECHNOLOGY KANPUR, priority 2023, published 2025)

Columns and labels:
[1] = system: U2OS; test: Cell viability, CellTiter-Glo assay, U2OS; format: cell-based; details: Homo sapiens
Method: (§1) The viability of screened cancer cells was recorded using a luminescence-based CellTiter-Glo® assay for the ATP quantification. The screening concentration of the molecule ranged from 100/10 μM to 45/4.5 nM with an 8-point-3-fold dilution series in DMEM media (>0.1% DMSO as control). Each experiment was conducted in more than two biological replicates with three technical replicates. The error bar is a representation of standard deviation among the technical replicates.
as §1, with “IITK3002” for “the molecule”, “10” for “100/10”, “4.5” for “45/4.5”
(§2) a. […] In parallel, we have also synthesized the bromoacetamide (IITK3002) version of the lead molecules which is slightly more reactive with thiol nucleophiles when compared to chlorooacetamide warheads as depicted in FIG. 13. […] In addition, we also evaluated the molecules' antiproliferative potency against a panel of twelve different cancer phenotypes. The set of cancer cell lines included liver, breast, colon, myeloma, bone, blood, skin, brain and prostate lineages (FIG. 2, 3, Table 1).

[2] = system: 22Rv1; test: Cell viability, CellTiter-Glo assay, 22Rv1; format: cell-based; details: Homo sapiens, 22Rv1, 22Rv1, cell viability
Method: as §1
as §1, with “IITK3002” for “the molecule”, “10” for “100/10”, “4.5” for “45/4.5”
as §2

[3] = system: Huh-7 cells; test: Cell viability, luminescence-based CellTiter-Glo assay, Huh-7 cells; details: Homo sapiens, Huh-7, Huh-7 cells, cell viability; read-out: EC50 Huh-7
Method: The viability of Huh-7 cells was recorded using a luminescence-based CellTiter-Glo® assay. The screening concentration of the molecules were 10 μM with or without Fer-1 (10 μM) in DMEM media (>0.1% DMSO as control).
Ferroptosis is a unique form of cell death mechanism mediated by the accumulation of lipid peroxides in cells which is distinct from healthy cells' apoptosis, a programmed […] route. We aimed to exploit the induction of ferroptosis in cancer cells using covalent small molecules as a potential strategy for cancer therapeutic development. […] We used various amide bond formation chemistry to construct the library members and these molecules are well characterized by various spectroscopic and mass spectrometry techniques. Once confirmed, these thiol reactive library members were screened in a cancer cell viability assay in combination with ferrostatin-1 (Fer-1), a ferroptosis inhibitor as depicted in FIG. 11. […] We have screened a total of ˜50 electrophilic small molecules to prevent the proliferation of hepatocellular carcinoma (Huh-7 cells) in combination with and without Fer-1. From our initial screening, we identified haloacetamides of 2-aminoalkylbenzophenone as potential ferroptosis inducers as depicted in FIG. 11.
as §1
The viability of screened cancer cells was recorded using a luminescence-based CellTiter-Glo® assay for the ATP quantification. The screening concentration of IITK3002 ranged from 10 μM to 4.5 nM with an 8-point-3-fold dilution series in DMEM media (>0.1% DMSO as control). Each experiment was conducted in more than two biological replicates with three technical replicates. The error bar is a representation of standard deviation among the technical replicates. […]
a. Electrophilic Warhead Optimization: Once we identified 2-benzoylphenyl-a-haloacetamide as the lead scaffold, we have investigated the structure-activity-relationship analysis to precisely capture the effect of various chemical handles of the scaffold and use the knowledge to improve the overall potency and selectivity of this molecule to prevent cancer cell proliferation. First, we changed the haloacetamide electrophilic unit with various other electrophiles with a characteristic high, moderate, and weak reactivity with thiols when compared to chloroacetamide. Therefore, we opted vinylsulfonamide (highly reactivity), acrylamide (moderate reactivity), and phenoxyacetamides (weak reactivity warheads) for incorporation in the place of haloacetamide warhead of the top hit scaffold. Once synthesized, these molecules were evaluated to assess their antiproliferative potency against Huh-7 cells (Table 2). As expected, the introduction of weakly reactive electrophilic warheads, phenoxyactamides, completely lost the activity against Huh-7 cells. […] Perhaps, the secondary interactions of the electrophilic warhead with the target proteins might play additional roles. Therefore, we shifted our focus to optimize the rest of the core scaffold for further SAR analysis. b. Role of N-Substitutions: Next, we synthesized the NH-derivative of haloacetamides to capture the importance of N-alkylation on the activity of our hit molecule. […] Perhaps the hydrogen bonding induced planarity around the warhead influences the molecules' weakened potency. Conversely, the additional flexibility in the lead molecule (tertiary amide) might contribute to the strong antiproliferative activity of the hit molecule. […]

[4] = system: Huh-7 cells; test: Combination cell viability experiments with thiols, ferroptosis modulators and cell death inhibitors in Huh-7 cells; format: cell-based; details: combination with GSH, NAC, BSO, Fer-1, deferoxamine, RSL3, FIN56, Erastin, QVD-OPh, necrostatin-1; Huh-7 and 4T1
Method: FIG. 14 depicts a combination experiment indicates the involvement of thiol modulation by IITK3001/IITK3002 on the viability of Huh-7 and 4T1 cells, in accordance with an embodiment of the present invention. The viability of screened cancer cells was recorded using a luminescence-based CellTiter-Glo® assay for the ATP quantification. The screening concentration of (a) IITK3001 and (b) IITK3002 ranged from 10 uM to 4.5 nM with an 8-point-3-fold dilution series in DMEM medium (>0.1% DMSO as control). For combination experiments, 500 μM of NAC or glutathione and 25 μM of BSO were used. Each experiment was conducted in more than two biological replicates with three technical replicates. The error bar is a representation of standard deviation among the technical replicates.
(§3) FIG. 16 depicts ferroptosis induction as a cell death mechanism is established for IITK3001 using combination experiments with ferroptosis inducers and inhibitors, in accordance with an embodiment of the present invention. The screening concentration of (a) IITK3001 and (b) IITK3002 ranged from 10 μM to 4.5 nM with an 8-point-3-fold dilution series in DMEM medium (>0.1% DMSO as control). For combination experiments, Ferrostain-1 (10 μM),Deferoxamine (3 μM), RSL3 (10 nM), FIN56 (30 nM), glutamine (0.5 mM), glutamic acid (0.5 mM), Erastin (0.5 μM) were used. Each experiment was conducted in more than two biological replicates with three technical replicates. The error bar is a representation of standard deviation among the technical replicates.
as §3, with “18” for “16”, “IITK3002” for “IITK3001”, “of” for “of (a) IITK3001 and (b)”, “μM), Deferoxamine” for “μM),Deferoxamine”
FIG. 20 depicts combining apoptosis and necroptosis inhibitors ruled out the possibility of respective cell death mechanisms upon treatment with IITK3001 or IITK3002 in Huh-7 and 4T1 cells, in accordance with an embodiment of the present invention. The screening concentration of IITK3001/IITK3002 ranged from 10 μM to 4.5 nM with an 8-point-3-fold dilution series in DMEM medium (>0.1% DMSO as control). For combination experiments, QVD-OPh and Necrsotatin-1 (10 μM) were used. Each experiment was conducted in more than two biological replicates with three technical replicates. The error bar is a representation of standard deviation among the technical replicates.
FIG. 22 depicts ferroptosis induction was established for IITK3003 using combination experiments in Huh-7 cells, in accordance with an embodiment of the present invention. The screening concentration of IITK3002 ranged from 10 uM to 4.5 nM with an 8-point-3-fold dilution series in DMEM medium (>0.1% DMSO as control). For combination experiments, Ferrostain-1 ([…]), Deferoxamine (3 μM), RSL3 (10 nM), FIN56 (30 nM), glutamine (0.5 mM), glutamic acid (0.5 mM), Erastin (0.5 μM) were used. Each experiment was conducted in more than two biological replicates with three technical replicates. The error bar is a representation of standard deviation among the technical replicates.
FIG. 24 depicts ferroptosis induction was established for IITK3004 using combination experiments in Huh-7 cells, in accordance with an embodiment of the present invention. The screening concentration of the molecules (a) IITK3001 and (b) IITK3002 ranged from 10 μM to 4.5 nM with a 8-point-3-fold dilution series. […]

[5] = system: PC3; test: Cell viability, CellTiter-Glo assay, PC3; format: cell-based; details: Homo sapiens, PC-3, PC3, cell viability
Method: as §1
The viability of screened cancer cells was recorded using a luminescence-based CellTiter-Glo® assay for the ATP quantification. The screening concentration of IITK3002 ranged from 10 μM to 4.5 nM with an 8-point-3-fold dilution series in DMEM media (>0.1% DMSO as control). Each experiment was conducted in more than two biological replicates with three technical replicates. The error bar is a representation of standard deviation among the technical replicates.
as §2

[6] = system: A549; test: Cell viability, A549; format: cell-based; details: Homo sapiens
[7] = system: Huh-7 cells; test: Intracellular ROS, H2-DCFDA oxidation assay in Huh-7 cells; format: cell-based; details: Huh-7, 37° C., 30 min; IITK3001 and IITK3002 20 μM, H2O2 100 μM
Method: We used fluorescence imaging-based oxidation of H2-DCFDA by ROS for assessing intracellular oxidative stress. Huh-7 cells were treated at 37° C. for 30 min with IITK3001 and IITK3002 (20 μM), H2O2 (100 μM), ^tertBuOOH (20 μM), NAC (0.5 mM) and 0.1% DMSO as control. Each experiment was conducted in more than two biological replicates with three technical replicates.
b. Effect of Thiols and Ferroptosis Modulators on the Hit Molecules' Antiproliferative Potency: Ferroptosis is directly controlled by the intracellular thiol concentrations in the form of cysteine and glutathione. Several oxidative mechanisms are well-wired in ferroptotic cell death and we set out to investigate the precise molecular mechanism of our lead molecules. Both cysteine and glutathione (GSH) are the enriched thiol-containing small molecule antioxidant system that are essential regulators of redox modulation in cells including ferroptosis. Further, the enzyme glutathione peroxidase 4 (GPX4) is well characterized to specifically quench the lipid peroxide equivalents in cells through the conversion of […] in cells thereby restoring the reduced environment in cells. Therefore, first, we assessed the ability of N-acetylcysteine (NAC) and GSH to suppress our lead molecules antiproliferative activity (FIG. 4a, b). We found a drastic reduction in the molecules' potency with IITK3001 (>1000-fold reduction) and IITK3002 (>500-fold reduction) (FIG. 14a, b). Supporting that, the addition of DL-Buthionine sulfoximine (BSO), an inhibitor of y-glutamylcysteine synthetase (glutathione biosynthesis) combination with our lead molecules potentiated the overall inhibitory capacity (FIG. 14a, b). […] Finally, we assessed the effect of Ferrostain-1 (Fer-1) and Liproxstatin-1 (Lip-1), antioxidants that function by trapping reactive radicals in cells, particularly lipid-peroxide radicals, and preventing the accumulation of lipid peroxides in cells. […] The accumulation of lipid peroxides and overall ROS was also detected using a fluorescence-based H2DCF-DA assay as depicted in FIG. 15. […]

Compound	EC50 [1] [µM]	EC50 [2] [µM]	EC50 [3] [µM]	EC50 [5] [µM]	EC50 [6] [µM]	cell death mechanism from combination experiments [4]	intracellular ROS, H2DCF-DA fluorescence intensity [7]
C#CCN(C(=O)CBr)c1ccccc1C(=O)c1ccccc1 [IITK3004, N-(2-benzoylphenyl)-2-bromo-N-(prop-2-yn-1-yl)acetamide]	0.37	0.12	0.00464	0.13	–	exceptionally selective ferroptosis inducers	–
CN(C(=O)COc1ccc(F)cc1)c1ccccc1C(=O)c1ccccc1 [IITK3006, N-(2-benzoylphenyl)-2-(4-fluorophenoxy)-N-methylacetamide]	> 20	> 20	> 20	> 20	> 20	–	–
OO [Hydrogen peroxide, reference compound]	–	–	–	–	–	–	drastic enhancement in the fluorescence intensity

The next lines start with results.

EC50 [1] [µM]	EC50 [2] [µM]	EC50 [3] [µM]	EC50 [5] [µM]	EC50 [6] [µM]	Compound	cell death mechanism from combination experiments [4]	intracellular ROS, H2DCF-DA fluorescence intensity [7]
> 20	> 20	> 20	> 20	> 20	O=C(c1ccccc1)c1ccccc1N(Cc1ccccc1)C(=O)COc1ccc(F)cc1 [IITK3037, N-(2-benzoylphenyl)-N-benzyl-2-(4-fluorophenoxy)acetamide]	–	–
> 20	> 20	> 100	> 20	> 20	C#CCN(C(=O)COc1ccc(F)cc1)c1ccccc1C(=O)c1ccccc1 [IITK3030, N-(2-benzoylphenyl)-2-(4-fluorophenoxy)-N-(prop-2-yn-1-yl)acetamide]	–	–
